This note sets out measurements from patent US20090214445A1, “DELIVERY SYSTEMS FOR MANAGING RELEASE OF FUNCTIONAL INGREDIENTS IN AN EDIBLE COMPOSITION” (Cadbury Adams USA LLC, priority 2005, published 2009).

This data set in a line: Discoloration (degradation) of sucralose during encapsulation. In kind it is physicochemical. Particulars: with polyvinyl acetate, 2% polyvinylpyrollidone, 1% magnesium stearate; tablets pressed at 25° C., heated to 80° C. As to the method: As one example of a hydrophilic coating, sucralose was mixed with powdered polyvinyl acetate and 5% fat and extruded at 110° C. […] In an alternative encapsulation, sucralose was mixed with powdered polyvinyl acetate, 2% polyvinylpyrollidone and 1% magnesium stearate and pressed into tablets at 25° C. The tablets were then heated to 80° C., which softened the polymer and fused the polyvinylacetate with the sucralose. […] Thereafter, the tablets were cooled, ground and sized and analyzed. […] As another example, a polymer/sweetener matrix was prepared as described above in this paragraph. A solution of gum arabic was made and coated on the polymer/sweetener matrix particles using the method described in U.S. Pat. No. 3,196,827, the relevant portions of which are incorporated herein by reference. Coating levels were 20, 30, 40, and 50% for different samples. Chewing gums prepared with the coated polymer/sweetener matrix particles were chewed by a panel with bolus collection at 5, 10, 15, 20 minutes. Residual sucralose was analyzed in each chewed bolus.

In the case of `OC[C@H]1O[C@H](O[C@]2(CCl)O[C@H](CCl)[C@@H](O)[C@@H]2O)[C@H](O)[C@@H](O)[C@H]1Cl` [sucralose], the “discoloration of the sucralose” value is “No discoloration”.
